Test results published in the NIST ThermoML archive (doi:10.1016/j.fluid.2014.04.018).
Several values for one entry are separate records, joined by “and”; a condition that tells them apart may be missing. Equal values may be shown once. ± gives the expanded uncertainty stated by the source.

Settings: Liquid, Vibrating tube method

CCCOC(=O)CCCCC(=O)OCCC [dipropyl hexanedioate]
Settings | mass density
293.15 K, 100 kPa | 979.3 ± 3.9 kg/m3
293.15 K, 520 kPa | 979.7 ± 3.9 kg/m3
293.15 K, 1040 kPa | 980 ± 3.9 kg/m3
293.15 K, 2530 kPa | 981 ± 3.9 kg/m3
293.15 K, 5020 kPa | 982.5 ± 3.9 kg/m3
293.15 K, 7510 kPa | 984.1 ± 3.9 kg/m3
293.15 K, 7530 kPa | 984.2 ± 3.9 kg/m3
293.15 K, 10010 kPa | 985.7 ± 4 kg/m3
293.15 K, 15050 kPa | 988.9 ± 4 kg/m3
293.15 K, 20010 kPa | 991.8 ± 4 kg/m3
293.15 K, 30030 kPa | 997.7 ± 4 kg/m3
293.15 K, 39800 kPa | 1003.1 ± 4 kg/m3
293.15 K, 50070 kPa | 1008.4 ± 4 kg/m3
293.15 K, 65000 kPa | 1015.7 ± 4.1 kg/m3
303.15 K, 100 kPa | 970.4 ± 3.9 kg/m3 and 970.3 ± 3.9 kg/m3
303.15 K, 500 kPa | 970.7 ± 3.9 kg/m3
303.15 K, 510 kPa | 970.7 ± 3.9 kg/m3
303.15 K, 1010 kPa | 971.1 ± 3.9 kg/m3
303.15 K, 2510 kPa | 972.1 ± 3.9 kg/m3
303.15 K, 5000 kPa | 973.8 ± 3.9 kg/m3
303.15 K, 5030 kPa | 973.8 ± 3.9 kg/m3
303.15 K, 7510 kPa | 975.5 ± 3.9 kg/m3
303.15 K, 10010 kPa | 977.1 ± 3.9 kg/m3
303.15 K, 10020 kPa | 977.1 ± 3.9 kg/m3
303.15 K, 15010 kPa | 980.4 ± 3.9 kg/m3
303.15 K, 20000 kPa | 983.5 ± 3.9 kg/m3
303.15 K, 30000 kPa | 989.6 ± 4 kg/m3
303.15 K, 30010 kPa | 989.6 ± 4 kg/m3
303.15 K, 39800 kPa | 995.2 ± 4 kg/m3
303.15 K, 50010 kPa | 1000.7 ± 4 kg/m3
303.15 K, 64990 kPa | 1008.3 ± 4 kg/m3
303.15 K, 65010 kPa | 1008.3 ± 4 kg/m3
313.15 K, 100 kPa | 961.5 ± 3.9 kg/m3
313.15 K, 500 kPa | 961.8 ± 3.9 kg/m3
313.15 K, 1010 kPa | 962.2 ± 3.9 kg/m3
313.15 K, 2510 kPa | 963.3 ± 3.9 kg/m3
313.15 K, 5040 kPa | 965.1 ± 3.9 kg/m3
313.15 K, 7510 kPa | 966.8 ± 3.9 kg/m3
313.15 K, 10010 kPa | 968.5 ± 3.9 kg/m3
313.15 K, 15000 kPa | 971.9 ± 3.9 kg/m3
313.15 K, 19980 kPa | 975.2 ± 3.9 kg/m3
313.15 K, 30000 kPa | 981.6 ± 3.9 kg/m3
313.15 K, 39800 kPa | 987.4 ± 4 kg/m3
313.15 K, 39810 kPa | 987.4 ± 4 kg/m3
313.15 K, 50060 kPa | 993.2 ± 4 kg/m3
313.15 K, 65000 kPa | 1001 ± 4 kg/m3
323.15 K, 100 kPa | 952.4 ± 3.8 kg/m3
323.15 K, 500 kPa | 952.8 ± 3.8 kg/m3
323.15 K, 1010 kPa | 953.2 ± 3.8 kg/m3
323.15 K, 2530 kPa | 954.3 ± 3.8 kg/m3
323.15 K, 5020 kPa | 956.2 ± 3.8 kg/m3
323.15 K, 7510 kPa | 958 ± 3.8 kg/m3
323.15 K, 7550 kPa | 958.1 ± 3.8 kg/m3
323.15 K, 10000 kPa | 959.9 ± 3.8 kg/m3
323.15 K, 15030 kPa | 963.4 ± 3.9 kg/m3
323.15 K, 20010 kPa | 966.9 ± 3.9 kg/m3
323.15 K, 30010 kPa | 973.5 ± 3.9 kg/m3
323.15 K, 39820 kPa | 979.5 ± 3.9 kg/m3
323.15 K, 50020 kPa | 985.5 ± 4 kg/m3
323.15 K, 64990 kPa | 993.7 ± 4 kg/m3
333.15 K, 100 kPa | 943.5 ± 3.8 kg/m3
333.15 K, 500 kPa | 943.9 ± 3.8 kg/m3
333.15 K, 1020 kPa | 944.3 ± 3.8 kg/m3
333.15 K, 2520 kPa | 945.5 ± 3.8 kg/m3
333.15 K, 5010 kPa | 947.5 ± 3.8 kg/m3
333.15 K, 7510 kPa | 949.4 ± 3.8 kg/m3
333.15 K, 10000 kPa | 951.3 ± 3.8 kg/m3
333.15 K, 15000 kPa | 955.1 ± 3.8 kg/m3
333.15 K, 20000 kPa | 958.7 ± 3.8 kg/m3
333.15 K, 30020 kPa | 965.6 ± 3.9 kg/m3
333.15 K, 39790 kPa | 971.9 ± 3.9 kg/m3
333.15 K, 50050 kPa | 978.1 ± 3.9 kg/m3
333.15 K, 65000 kPa | 986.5 ± 4 kg/m3
343.15 K, 100 kPa | 934.6 ± 3.7 kg/m3
343.15 K, 520 kPa | 935 ± 3.8 kg/m3
343.15 K, 1040 kPa | 935.5 ± 3.8 kg/m3
343.15 K, 2540 kPa | 936.7 ± 3.8 kg/m3
343.15 K, 5020 kPa | 938.8 ± 3.8 kg/m3
343.15 K, 7510 kPa | 940.8 ± 3.8 kg/m3
343.15 K, 7520 kPa | 940.8 ± 3.8 kg/m3
343.15 K, 10020 kPa | 942.8 ± 3.8 kg/m3
343.15 K, 15000 kPa | 946.7 ± 3.8 kg/m3
343.15 K, 20030 kPa | 950.6 ± 3.8 kg/m3
343.15 K, 29580 kPa | 957.4 ± 3.8 kg/m3
343.15 K, 39860 kPa | 964.3 ± 3.9 kg/m3
343.15 K, 50020 kPa | 970.7 ± 3.9 kg/m3
343.15 K, 65000 kPa | 979.4 ± 3.9 kg/m3
353.15 K, 100 kPa | 925.7 ± 3.7 kg/m3
353.15 K, 510 kPa | 926.1 ± 3.7 kg/m3
353.15 K, 1020 kPa | 926.5 ± 3.7 kg/m3
353.15 K, 2530 kPa | 927.9 ± 3.7 kg/m3
353.15 K, 5020 kPa | 930.1 ± 3.7 kg/m3
353.15 K, 7510 kPa | 932.2 ± 3.7 kg/m3
353.15 K, 7530 kPa | 932.2 ± 3.7 kg/m3
353.15 K, 10000 kPa | 934.3 ± 3.7 kg/m3
353.15 K, 14550 kPa | 938 ± 3.8 kg/m3
353.15 K, 20020 kPa | 942.3 ± 3.8 kg/m3
353.15 K, 30010 kPa | 949.8 ± 3.8 kg/m3
353.15 K, 39800 kPa | 956.7 ± 3.8 kg/m3
353.15 K, 49990 kPa | 963.4 ± 3.9 kg/m3
353.15 K, 64990 kPa | 972.4 ± 3.9 kg/m3
363.15 K, 100 kPa | 916.7 ± 3.7 kg/m3
363.15 K, 500 kPa | 917.2 ± 3.7 kg/m3
363.15 K, 980 kPa | 917.6 ± 3.7 kg/m3
363.15 K, 2520 kPa | 919.1 ± 3.7 kg/m3
363.15 K, 5000 kPa | 921.3 ± 3.7 kg/m3
363.15 K, 7480 kPa | 923.6 ± 3.7 kg/m3
363.15 K, 10020 kPa | 925.8 ± 3.7 kg/m3
363.15 K, 15020 kPa | 930.1 ± 3.7 kg/m3
363.15 K, 20020 kPa | 934.2 ± 3.7 kg/m3
363.15 K, 30020 kPa | 942 ± 3.8 kg/m3
363.15 K, 39810 kPa | 949.1 ± 3.8 kg/m3
363.15 K, 50050 kPa | 956.1 ± 3.8 kg/m3
363.15 K, 64970 kPa | 965.4 ± 3.9 kg/m3

CCCCC(CC)COC(=O)CCCCC(=O)OCC(CC)CCCC (centres undefined) [bis(2-ethylhexyl) adipate]
Settings | mass density
293.15 K, 100 kPa | 925.4 ± 3.7 kg/m3
293.15 K, 2510 kPa | 926.9 ± 3.7 kg/m3
293.15 K, 5000 kPa | 928.4 ± 3.7 kg/m3 and 928.3 ± 3.7 kg/m3
293.15 K, 5010 kPa | 928.4 ± 3.7 kg/m3
293.15 K, 7550 kPa | 929.9 ± 3.7 kg/m3
293.15 K, 10010 kPa | 931.3 ± 3.7 kg/m3
293.15 K, 10020 kPa | 931.3 ± 3.7 kg/m3
293.15 K, 15040 kPa | 934.2 ± 3.7 kg/m3
293.15 K, 20020 kPa | 937 ± 3.8 kg/m3
293.15 K, 30030 kPa | 942.4 ± 3.8 kg/m3
293.15 K, 40010 kPa | 947.4 ± 3.8 kg/m3
293.15 K, 40020 kPa | 947.4 ± 3.8 kg/m3
293.15 K, 50020 kPa | 952.3 ± 3.8 kg/m3
293.15 K, 68030 kPa | 960.4 ± 3.9 kg/m3 and 960.3 ± 3.9 kg/m3
313.15 K, 100 kPa | 910.3 ± 3.6 kg/m3
313.15 K, 2530 kPa | 911.9 ± 3.7 kg/m3
313.15 K, 2540 kPa | 911.9 ± 3.7 kg/m3
313.15 K, 5020 kPa | 913.5 ± 3.7 kg/m3
313.15 K, 7540 kPa | 915.2 ± 3.7 kg/m3
313.15 K, 10010 kPa | 916.7 ± 3.7 kg/m3
313.15 K, 15010 kPa | 919.8 ± 3.7 kg/m3
313.15 K, 20000 kPa | 922.8 ± 3.7 kg/m3
313.15 K, 30030 kPa | 928.7 ± 3.7 kg/m3
313.15 K, 40020 kPa | 934.1 ± 3.7 kg/m3
313.15 K, 50010 kPa | 939.3 ± 3.8 kg/m3
313.15 K, 68050 kPa | 947.9 ± 3.8 kg/m3
333.15 K, 100 kPa | 895.3 ± 3.6 kg/m3
333.15 K, 2500 kPa | 897.1 ± 3.6 kg/m3
333.15 K, 5000 kPa | 898.8 ± 3.6 kg/m3
333.15 K, 7480 kPa | 900.6 ± 3.6 kg/m3
333.15 K, 9990 kPa | 902.3 ± 3.6 kg/m3
333.15 K, 14990 kPa | 905.7 ± 3.6 kg/m3
333.15 K, 19970 kPa | 908.9 ± 3.6 kg/m3
333.15 K, 30010 kPa | 915.2 ± 3.7 kg/m3
333.15 K, 39990 kPa | 921 ± 3.7 kg/m3
333.15 K, 50020 kPa | 926.6 ± 3.7 kg/m3
333.15 K, 68010 kPa | 935.8 ± 3.8 kg/m3
353.15 K, 100 kPa | 880.4 ± 3.5 kg/m3
353.15 K, 2500 kPa | 882.3 ± 3.5 kg/m3
353.15 K, 2510 kPa | 882.3 ± 3.5 kg/m3
353.15 K, 5000 kPa | 884.2 ± 3.5 kg/m3
353.15 K, 7510 kPa | 886.1 ± 3.6 kg/m3
353.15 K, 10000 kPa | 888 ± 3.6 kg/m3
353.15 K, 15010 kPa | 891.7 ± 3.6 kg/m3
353.15 K, 20020 kPa | 895.2 ± 3.6 kg/m3
353.15 K, 30030 kPa | 902 ± 3.6 kg/m3
353.15 K, 40020 kPa | 908.2 ± 3.6 kg/m3
353.15 K, 50010 kPa | 914.1 ± 3.7 kg/m3
353.15 K, 68010 kPa | 923.9 ± 3.7 kg/m3
373.15 K, 100 kPa | 865.4 ± 3.5 kg/m3
373.15 K, 2510 kPa | 867.5 ± 3.5 kg/m3
373.15 K, 5020 kPa | 869.7 ± 3.5 kg/m3
373.15 K, 7510 kPa | 871.7 ± 3.5 kg/m3
373.15 K, 10010 kPa | 873.8 ± 3.5 kg/m3
373.15 K, 14990 kPa | 877.8 ± 3.5 kg/m3
373.15 K, 20000 kPa | 881.6 ± 3.5 kg/m3
373.15 K, 30010 kPa | 888.9 ± 3.6 kg/m3
373.15 K, 40000 kPa | 895.6 ± 3.6 kg/m3
373.15 K, 50010 kPa | 901.9 ± 3.6 kg/m3
373.15 K, 68000 kPa | 912.3 ± 3.7 kg/m3
